Like-named read-outs stand apart in the source and are kept apart here. Blank lines part the entries; values can stand above or below the molecule they belong to.
What was measured:
Microsporum canis = assay: Antidermatophyte activity, plaque growth inhibition; format: cell-based, Microsporum canis CBS 131,110; settings: read-out: % Inhibition Growth M. canis
Protocol: (§1) The dermatophytes used in this study were Epidermophyton floccosum var. floccosum (Netherlands) CBS 358.93 strain, Trichophyton tonsurans (Netherlands) CBS 483.76 strain, Trichophyton mentagrophytes (Netherlands) CBS 160.66 strain, Microsporum canis (Iran) CBS 131,110 strain, and Microsporum gypseum (Iran) CBS 130,948 strain. All dermatophytes were maintained at 4 °C as agar slants on SDA. Candida albicans (ATCC 10231) was maintained at 4 °C on SDA plate.
(§2) The in vitro antifungal activity against the five selected dermatophytes was evaluated, as previously described, using the plaque growth inhibition method. All compounds were evaluated at the final concentration of 100 µg/mL. The percentages of growth inhibition according to Equation (5) were calculated as the average of three different experiments. I = [(C − T)/C] × 100%,(5) where I is the percentage value of growth inhibition, C is the measure of the diameter of the control circular mycelial inoculum (mm) and T is the extended diameter of the treated mycelial inoculum (mm).
(§3) All synthesized benzothiazole derivatives were evaluated to evaluate their in vitro antifungal activity against the five pathogenic dermatophytes that cause the most common dermatomycoses: Microsporum gypseum, Microsporum canis, Trichophyton mentagrophytes, Trichophyton tonsurans and Epidermophyton floccosum. All compounds were tested at a concentration of 100 µg/mL in DMSO, to evaluate the ability to inhibit the growth of dermatophyte cultures in Sabouraud Dextrose Agar (SDA). Briefly, room temperature incubation was performed and dermatophyte inhibition assessed by measuring the colony diameter at each disc for 7 days. The results are shown in Table 3 and were determined as the average of three different experiments.

In vitro DPPH test = settings: compounds at 1 mg/mL, 30 min, 517 nm
Protocol: The assay performed is adapted from Wang et al.. Briefly, 0.750 mL of 1 mg/mL solutions of the tested compounds was treated with 1.5 mL of DPPH solution in MeOH. The absorbance of samples, stored for 30 min at room temperature in the dark, was read on the spectrophotometer at 517 nm. The values obtained were converted into a radical inhibition percentage (%) by Equation (1). DPPH radical scavenging capacity (%) = [1 − A1/A0] × 100%(1) where A0 and A1 were, respectively, the absorbance without and with the sample. Subsequently, the compound with the best profile was tested in order to determine the IC50 (µg/mL). A linear regression plot is performed to calculate the actual sample concentration required to eliminate 50% of the DPPH free radicals.
The antioxidant activity of a molecule is very important and, if present, it can be synergistic with the SPF described above in reducing the damage that is ROS-induced by UV rays. For this reason, the synthesized compounds were assayed in vitro to assess their antioxidant profiles by means of the DPPH and FRAP assays (Table 2). Regarding the ability to scavenge the stable radical 2,2-diphenyl-1-picrylhydrazyl (DPPH), it was decided to investigate first the compounds synthesized at the same concentration (1 mg/mL) and evaluate the percentage of inhibition of the radical DPPH.

[1] = Ferric Reducing Antioxidant Power assay (FRAP); settings: 593 nm
Protocol: The FRAP assay is a widely used method based on a colorimetric reaction linked to a redox and on the use of antioxidants as reducing agents.
The test evaluates the capacity of a sample to reduce ferric to ferrous ions in the presence of TPTZ (2,4,6-tripyridyl-s-triazine). The reaction mixture consists of 0.1 M acetate buffer pH 3.6, 10 mmol/L TPTZ in 40 mmol/HCl, and 20 mmol/L ferric chloride in the ratio 10/1/1 (v:v:v) as described by Benzie et al.. A total of 1.9 mL of reagent was added to 0.1 mL of suitably diluted sample or solvent. The absorbance values were measured using the UV-VIS spectrophotometer at 593 nm and expressed as µmol TE/g compound.

Epidermophyton floccosum = assay: Antidermatophyte activity, plaque growth inhibition; format: cell-based, Epidermophyton floccosum var. floccosum CBS 358.93; settings: read-out: % Inhibition Growth E. floccosum
Protocol: as §1, §2, §3

Microsporum gypseum = assay: as above; format: cell-based, Microsporum gypseum CBS 130,948; settings: Nannizzia gypsea, read-out: % Inhibition Growth M. gypseum
Protocol: as §1, §2, §3

[2] = tested on: Trichophyton mentagrophytes; assay: as above; format: cell-based, Trichophyton mentagrophytes CBS 160.66; settings: read-out: % Inhibition Growth T. mentagrophytes
Protocol: as §1, §2, §3

[3] = UV spectra of compounds in solution (filtering parameters); format: physicochemical
Protocol: The evaluation of the sun protection parameters has been carried out using a UV-Vis spectrophotometer. The absorbance of the solutions of the test compounds dissolved in the different solvents (DMSO, MeOH, DMSO–H2O 4:6, DMSO–H2O 6:4, HE) at a concentration of 0.0015 (±0.000005)% was recorded in the range 290–400 nm using a 1 cm quartz cell at 1 nm intervals. It was decided to evaluate the profile of the compounds in the Peg-7 Glyceryl Cocoate (HE) oil, which is the emollient of choice to solubilize the compounds in a formulation suitable for in vivo analysis. Wavelength absorbance is in relationship with transmittance (T (λ)) from Equation (2) A (λ) = […](2) where T (λ) is the fraction of incident irradiance that is transmitted through a sample.
The three parameters were determined, respectively, in DMSO and in methanol in order to perform a comparison (Table S1).
Since DMSO is a solvent with characteristics very close to those of an oil, the analysis was also carried out in solutions that mimic the possible conditions of a formulation. For this reason, the 4:6 and 6:4 proportions of DMSO–H2O were chosen to evaluate the choice of an oil-in-water or water-in-oil emulsion.

Trichophyton tonsurans = assay: Antidermatophyte activity, plaque growth inhibition; format: cell-based, Trichophyton tonsurans CBS 483.76; settings: read-out: % Inhibition Growth T. tonsurans
Protocol: as §1, §2, §3

[4] = Filtering parameters (in vitro SPF, UVAPF, UVA/UVB, critical wavelength) of W/O formulations on PMMA plates; format: physicochemical
Protocol: The synthesized derivatives were incorporated at increasing concentrations (1%, 2% and 3%) in a topical W/O cosmetic standard formulation, to evaluate the filtering parameters, having the following ingredients composition.
INCI (International Nomenclature Cosmetic Ingredients): aqua, glycerin, Euxyl PE 9010, xanthan gum, ceteareth-12, ceteareth-20, sterearic acid, butylhydroxytoluene, myritol, PEG-7 glyceryl cocoate and 10% sodium solution.
Briefly, the protocol is to finger spread 32.5 mg of each formulation onto 25 cm2 PMMA plates. Each formulation was tested in triplicate by recording five measurements for each dish, after incubation in the dark for 15–30 min at room temperature. UV transmittance data were recorded in the range 290–400 nm using a UV-VIS spectrophotometer.
Blank plate, SPF, UVA-PF and Critical Wavelength were achieved through SPF Calculator Software (version 2.1), Shimadzu, Milan, Italy) as previously reported.
For the determination of the SPF in vitro of the samples in formulation it was decided to use an internal method, developed by us previously and based on the adaptation of the ISO 24443: 2012 [38]. The transmittance spectrum, processed with a specific software (SPF Calculator), made it possible to obtain the SPF, UVAPF, critical lambda and UVA/UVB ratio values of the formulations containing the selected active ingredients (Table 1).

Structure (SMILES): O=C(O)c1ccc2nc(-c3ccc[nH]3)sc2c1 [Compound 8b, 2-(1H-Pyrrol-2-Yl)benzothiazole-6-Carboxylic Acid]
inhibition at 100 µg/mL (Microsporum canis; 100 μg/mL, SDA): < 0% | DPPH (% Inhibition) (In vitro DPPH test): 5.71 ± 0.37% | FRAP [1]: 373.15 ± 1.27 μmolTE/g | inhibition at 100 µg/mL (Epidermophyton floccosum; 100 μg/mL, SDA): < 0% | inhibition at 100 µg/mL (Microsporum gypseum; 100 μg/mL, SDA): < 0% | inhibition at 100 µg/mL ([2]; 100 μg/mL, SDA): < 0% | A (absorbance) ([3]; DMSO): 0.370 | ε (molar extinction coefficient) ([3]; DMSO): 5308.47 | λmax ([3]; DMSO): 348.87 nm | A (absorbance) ([3]; MeOH): 0.190 | ε (molar extinction coefficient) ([3]; MeOH): 3089.43 | λmax ([3]; MeOH): 341.63 nm | inhibition at 100 µg/mL (Trichophyton tonsurans; 100 μg/mL, SDA): 5.45 ± 0.12% | melting point: > 250 °C

Structure (SMILES): O=C(O)c1ccc2nc(-c3ccco3)sc2c1 [Compound 9b, 2-(Furan-2-Yl)benzothiazole-6-Carboxylic Acid]
inhibition at 100 µg/mL (Microsporum canis; 100 μg/mL, SDA): 14.5 ± 0.83% | DPPH (% Inhibition) (In vitro DPPH test): 9.49 ± 0.04% | FRAP [1]: 66.07 ± 8.23 μmolTE/g | inhibition at 100 µg/mL (Epidermophyton floccosum; 100 μg/mL, SDA): 5.48 ± 0.12% | inhibition at 100 µg/mL (Microsporum gypseum; 100 μg/mL, SDA): 18.1 ± 0.97% | inhibition at 100 µg/mL ([2]; 100 μg/mL, SDA): < 0% | A (absorbance) ([3]; DMSO): 1.36 | ε (molar extinction coefficient) ([3]; DMSO): 23901.58 | λmax ([3]; DMSO): 331.90 nm | A (absorbance) ([3]; MeOH): 1.02 | ε (molar extinction coefficient) ([3]; MeOH): 19318.18 | λmax ([3]; MeOH): 327.57 nm | inhibition at 100 µg/mL (Trichophyton tonsurans; 100 μg/mL, SDA): 29.8 ± 1.23% | melting point: > 250 °C

Structure (SMILES): O=S(=O)(O)c1ccc2[nH]c(-c3ccccc3)nc2c1 [PBSA, 2-Phenyl-1H-benzo[d]imidazole-5-sulfonic acid, reference compound]
inhibition at 100 µg/mL (Microsporum canis): < 0% | SPF ([4]; 1% in W/O formulation): 3.22 | UVAPF ([4]; 1% in W/O formulation): 0.94 | λc ([4]; 1% in W/O formulation): 319 nm | SPF ([4]; 2% in W/O formulation): 4.63 | UVAPF ([4]; 2% in W/O formulation): 0.94 | λc ([4]; 2% in W/O formulation): 321 nm | SPF ([4]; 3% in W/O formulation): 5.09 | UVAPF ([4]; 3% in W/O formulation): 1.02 | λc ([4]; 3% in W/O formulation): 324 nm | DPPH (% Inhibition) (In vitro DPPH test): <LOQ * | FRAP [1]: <LOQ * | inhibition at 100 µg/mL (Epidermophyton floccosum): 7.28 ± 0.56% | inhibition at 100 µg/mL (Microsporum gypseum): 9.44 ± 0.35% | inhibition at 100 µg/mL [2]: < 0% | A (absorbance) ([3]; DMSO): 1.130 | ε (molar extinction coefficient) ([3]; DMSO): 23839.66 | λmax ([3]; DMSO): 310.50 nm | A (absorbance) ([3]; MeOH): 1.460 | ε (molar extinction coefficient) ([3]; MeOH): 30801.69 | inhibition at 100 µg/mL (Trichophyton tonsurans): < 0%

Second part, led by results:

A (absorbance) ([3]; DMSO): 0.700 | ε (molar extinction coefficient) ([3]; DMSO): 13944.22 | λmax ([3]; DMSO): 344.37 nm | A (absorbance) ([3]; MeOH): 0.760 | ε (molar extinction coefficient) ([3]; MeOH): 13263.53 | λmax ([3]; MeOH): 341.40 nm | melting point: > 250 °C
Structure (SMILES): NS(=O)(=O)c1ccc2nc(-c3ccc[nH]3)sc2c1 [Compound 8c, 2-(1H-Pyrrol-2-Yl)benzothiazole-6-Sulfonamide]
inhibition at 100 µg/mL (Microsporum canis; 100 μg/mL, SDA): 23.3 ± 0.86% | DPPH (% Inhibition) (In vitro DPPH test): 45.24 ± 2.78% | FRAP [1]: 119.12 ± 1.49 μmolTE/g | inhibition at 100 µg/mL (Epidermophyton floccosum; 100 μg/mL, SDA): 24.7 ± 0.71% | inhibition at 100 µg/mL (Microsporum gypseum; 100 μg/mL, SDA): 23.1 ± 0.48% | inhibition at 100 µg/mL ([2]; 100 μg/mL, SDA): 2.36 ± 0.17% | inhibition at 100 µg/mL (Trichophyton tonsurans; 100 μg/mL, SDA): 2.25 ± 0.03%

A (absorbance) ([3]; DMSO): 0.59 | ε (molar extinction coefficient) ([3]; DMSO): 10332.75 | λmax ([3]; DMSO): 329.00 nm | A (absorbance) ([3]; MeOH): 0.740 | ε (molar extinction coefficient) ([3]; MeOH): 13805.97 | λmax ([3]; MeOH): 325.30 nm | melting point: > 250 °C
Structure (SMILES): NS(=O)(=O)c1ccc2nc(-c3ccco3)sc2c1 [Compound 9c, 2-(Furan-2-Yl)benzothiazole-6-Sulfonamide]
inhibition at 100 µg/mL (Microsporum canis; 100 μg/mL, SDA): 19.5 ± 1.2% | DPPH (% Inhibition) (In vitro DPPH test): 64.92 ± 0.91% | FRAP [1]: 150.34 ± 11.01 μmolTE/g | inhibition at 100 µg/mL (Epidermophyton floccosum; 100 μg/mL, SDA): 36.4 ± 1.25% | inhibition at 100 µg/mL (Microsporum gypseum; 100 μg/mL, SDA): 17.82 ± 0.06% | inhibition at 100 µg/mL ([2]; 100 μg/mL, SDA): 10.97 ± 0.08% | inhibition at 100 µg/mL (Trichophyton tonsurans; 100 μg/mL, SDA): < 0%
